ChEMBL document CHEMBL1201862, “PubChem BioAssay data set” (2004)
Calls of active or inactive are those of the source.

Key:
[1] = biological target: T1, G-protein coupled receptor 55 (Homo sapiens, UniProt Q9Y2T6); test: SAR analysis of selective Agonists of GPR55 using an Image-Based Assay. [Related pubchem assays (depositor defined):AID1961, AID1965]; format: functional
[2] = biological target: T1, G-protein coupled receptor 55; test: selective activators of receptor GPR55 – imaging, U2OS cells, beta-arrestin-GFP redistribution, primary screen (AID 1961); format: functional
[3] = biological target: Cannabinoid receptor 1 (Homo sapiens, UniProt P21554); test: SAR analysis of antagonists of the Cannabinoid Receptor 1 using an Image-Based Assay. [Related pubchem assays (depositor defined):AID1961, AID1965]; format: functional
Chain of Cannabinoid receptor 1 (P21554 whole entry): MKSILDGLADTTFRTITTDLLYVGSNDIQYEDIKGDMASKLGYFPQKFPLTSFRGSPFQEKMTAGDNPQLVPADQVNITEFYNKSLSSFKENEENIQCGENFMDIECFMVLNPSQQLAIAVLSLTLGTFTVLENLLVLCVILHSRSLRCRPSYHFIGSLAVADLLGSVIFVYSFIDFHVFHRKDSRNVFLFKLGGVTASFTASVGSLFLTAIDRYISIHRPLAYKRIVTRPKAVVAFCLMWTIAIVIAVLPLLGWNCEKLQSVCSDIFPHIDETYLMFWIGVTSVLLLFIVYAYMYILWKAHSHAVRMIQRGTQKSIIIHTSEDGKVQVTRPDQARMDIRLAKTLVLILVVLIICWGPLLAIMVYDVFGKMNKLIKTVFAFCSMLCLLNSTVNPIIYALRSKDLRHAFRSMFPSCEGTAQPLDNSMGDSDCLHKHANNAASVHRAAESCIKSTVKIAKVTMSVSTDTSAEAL

[4] = biological target: T2, Sentrin-specific protease 6 (Homo sapiens, UniProt Q9GZR1); format: functional;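 also: Luminescence-based dose-response confirmatory assay of SENP6 inhibition, following up an ultra-high-throughput screen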
T2 sequence (Q9GZR1 whole entry): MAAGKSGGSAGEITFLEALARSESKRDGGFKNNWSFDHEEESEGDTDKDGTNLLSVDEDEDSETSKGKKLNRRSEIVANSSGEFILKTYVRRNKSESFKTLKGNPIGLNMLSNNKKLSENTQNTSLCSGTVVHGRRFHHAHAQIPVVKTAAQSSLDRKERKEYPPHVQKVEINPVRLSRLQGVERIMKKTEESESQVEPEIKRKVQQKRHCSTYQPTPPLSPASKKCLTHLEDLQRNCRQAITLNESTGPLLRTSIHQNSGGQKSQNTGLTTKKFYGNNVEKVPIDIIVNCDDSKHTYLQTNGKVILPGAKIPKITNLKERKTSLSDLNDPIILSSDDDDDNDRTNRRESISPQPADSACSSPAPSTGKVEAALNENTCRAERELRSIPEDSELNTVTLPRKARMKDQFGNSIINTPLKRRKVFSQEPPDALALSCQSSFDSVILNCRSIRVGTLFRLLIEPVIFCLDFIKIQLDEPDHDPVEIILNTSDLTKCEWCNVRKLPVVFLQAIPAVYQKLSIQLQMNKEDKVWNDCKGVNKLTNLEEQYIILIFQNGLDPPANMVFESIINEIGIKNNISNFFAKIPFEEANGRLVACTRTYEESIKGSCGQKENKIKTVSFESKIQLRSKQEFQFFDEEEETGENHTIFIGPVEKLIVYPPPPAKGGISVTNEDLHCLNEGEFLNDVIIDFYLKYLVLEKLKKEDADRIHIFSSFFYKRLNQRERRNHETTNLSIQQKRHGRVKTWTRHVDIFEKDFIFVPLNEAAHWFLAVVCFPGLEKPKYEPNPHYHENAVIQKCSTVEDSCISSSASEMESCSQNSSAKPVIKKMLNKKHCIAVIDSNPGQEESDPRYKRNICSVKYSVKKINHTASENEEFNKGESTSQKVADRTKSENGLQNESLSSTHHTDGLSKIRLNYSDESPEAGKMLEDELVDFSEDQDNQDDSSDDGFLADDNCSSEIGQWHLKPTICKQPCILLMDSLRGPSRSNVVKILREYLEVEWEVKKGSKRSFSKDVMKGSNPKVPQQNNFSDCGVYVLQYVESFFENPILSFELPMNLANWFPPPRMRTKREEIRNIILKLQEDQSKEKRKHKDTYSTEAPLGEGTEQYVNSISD

[5] = biological target: T3, Sentrin-specific protease 8 (Homo sapiens, UniProt Q96LD8); format: functional;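 also: luminescence read-out of SENP8 inhibition, dose-response confirmation following an ultra-high-throughput screen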
T3 sequence (Q96LD8 whole entry): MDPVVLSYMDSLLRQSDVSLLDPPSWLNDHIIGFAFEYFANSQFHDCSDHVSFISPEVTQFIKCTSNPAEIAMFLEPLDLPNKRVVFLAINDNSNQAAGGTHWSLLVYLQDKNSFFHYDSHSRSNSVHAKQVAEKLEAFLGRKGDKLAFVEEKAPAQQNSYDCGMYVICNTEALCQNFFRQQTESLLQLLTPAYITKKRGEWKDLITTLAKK

[6] = biological target: T4, Caspase-3 (Homo sapiens, UniProt P42574); format: functional;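 also: Dose-response selectivity test against caspase-3 for candidate inhibitors of sentrin-specific proteases (SENPs)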
T4 sequence (P42574 whole entry): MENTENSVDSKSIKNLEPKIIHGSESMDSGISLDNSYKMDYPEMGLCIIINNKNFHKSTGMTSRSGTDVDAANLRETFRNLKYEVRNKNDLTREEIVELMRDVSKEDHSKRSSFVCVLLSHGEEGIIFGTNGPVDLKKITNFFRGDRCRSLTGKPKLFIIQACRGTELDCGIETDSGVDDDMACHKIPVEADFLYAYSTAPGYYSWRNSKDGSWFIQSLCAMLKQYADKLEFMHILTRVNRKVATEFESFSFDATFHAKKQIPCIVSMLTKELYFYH

[7] = biological target: T5, Cannabinoid receptor 2 (Homo sapiens, UniProt P34972); test: SAR analysis of antagonists of the Cannabinoid Receptor 2 using an Image-Based Assay - Set 2. [Related pubchem assays (depositor defined):AID1961, AID1965]; format: functional
T5 sequence (P34972 whole entry): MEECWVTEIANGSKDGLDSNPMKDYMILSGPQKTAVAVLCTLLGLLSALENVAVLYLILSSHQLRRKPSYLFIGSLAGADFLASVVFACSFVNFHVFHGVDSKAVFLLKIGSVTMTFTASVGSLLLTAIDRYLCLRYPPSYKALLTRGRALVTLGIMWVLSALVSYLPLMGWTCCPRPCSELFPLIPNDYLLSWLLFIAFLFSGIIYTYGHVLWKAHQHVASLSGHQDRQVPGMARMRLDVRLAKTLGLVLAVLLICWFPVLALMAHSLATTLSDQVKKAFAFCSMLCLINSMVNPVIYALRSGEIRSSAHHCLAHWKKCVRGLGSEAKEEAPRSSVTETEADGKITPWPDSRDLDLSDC

[8] = biological target: T5, Cannabinoid receptor 2; test: SAR analysis of agonists of the Cannabinoid Receptor 2 using an Image-Based Assay - Set 2. [Related pubchem assays (depositor defined):AID1961, AID1965]; format: functional
[9] = viability loss in HepG2 hepatoma cells – cell-based, ATP luminescence, cherry-pick, activator set 2, cytotoxicity control, dose response (AID 1053143); format: functional
[10] = biological target: T6, Sentrin-specific protease 7 (Homo sapiens, UniProt Q9BQF6); format: functional;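 also: Luminescence-based dose-response confirmation of ultra-high-throughput screening hits, measuring inhibition of SENP7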
T6 sequence (Q9BQF6 whole entry): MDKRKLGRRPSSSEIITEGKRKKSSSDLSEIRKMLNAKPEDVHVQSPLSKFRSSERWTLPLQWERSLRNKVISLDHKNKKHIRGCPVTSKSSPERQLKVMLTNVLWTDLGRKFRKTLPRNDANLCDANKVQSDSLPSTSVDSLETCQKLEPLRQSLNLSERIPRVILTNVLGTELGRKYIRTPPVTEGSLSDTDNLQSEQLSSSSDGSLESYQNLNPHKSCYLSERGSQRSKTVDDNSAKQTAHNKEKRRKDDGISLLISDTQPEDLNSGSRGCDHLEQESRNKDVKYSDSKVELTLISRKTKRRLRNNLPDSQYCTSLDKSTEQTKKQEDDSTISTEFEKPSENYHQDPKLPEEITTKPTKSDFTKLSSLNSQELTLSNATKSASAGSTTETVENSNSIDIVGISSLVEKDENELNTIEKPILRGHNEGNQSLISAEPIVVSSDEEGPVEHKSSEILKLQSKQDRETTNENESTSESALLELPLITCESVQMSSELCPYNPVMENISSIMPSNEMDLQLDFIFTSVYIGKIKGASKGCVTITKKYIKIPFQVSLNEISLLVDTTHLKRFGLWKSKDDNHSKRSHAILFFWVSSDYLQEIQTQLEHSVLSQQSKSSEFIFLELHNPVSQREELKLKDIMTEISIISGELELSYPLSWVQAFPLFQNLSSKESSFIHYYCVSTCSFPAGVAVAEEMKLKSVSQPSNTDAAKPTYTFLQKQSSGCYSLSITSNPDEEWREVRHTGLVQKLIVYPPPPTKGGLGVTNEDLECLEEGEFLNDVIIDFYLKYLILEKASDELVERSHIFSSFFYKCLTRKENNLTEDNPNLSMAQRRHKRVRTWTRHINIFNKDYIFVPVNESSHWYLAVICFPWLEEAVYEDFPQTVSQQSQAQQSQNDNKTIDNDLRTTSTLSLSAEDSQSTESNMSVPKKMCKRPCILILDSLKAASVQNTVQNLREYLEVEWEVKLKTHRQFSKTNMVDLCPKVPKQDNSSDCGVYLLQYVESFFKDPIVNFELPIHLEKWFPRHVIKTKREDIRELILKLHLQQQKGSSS

[11] = biological target: Latent membrane protein 1 (Human herpesvirus 4 (strain B95-8), UniProt P03230); test: LMP1 TES1 pathway selectivity over dsRED control – imaging, HEK293T, dual-color eGFP/dsRED, cherry-picks, selectivity assay for LMP1 NF-kB inhibitor project, dose response (AID 588398); format: functional, cell-based
Chain of Latent membrane protein 1 (P03230 whole entry): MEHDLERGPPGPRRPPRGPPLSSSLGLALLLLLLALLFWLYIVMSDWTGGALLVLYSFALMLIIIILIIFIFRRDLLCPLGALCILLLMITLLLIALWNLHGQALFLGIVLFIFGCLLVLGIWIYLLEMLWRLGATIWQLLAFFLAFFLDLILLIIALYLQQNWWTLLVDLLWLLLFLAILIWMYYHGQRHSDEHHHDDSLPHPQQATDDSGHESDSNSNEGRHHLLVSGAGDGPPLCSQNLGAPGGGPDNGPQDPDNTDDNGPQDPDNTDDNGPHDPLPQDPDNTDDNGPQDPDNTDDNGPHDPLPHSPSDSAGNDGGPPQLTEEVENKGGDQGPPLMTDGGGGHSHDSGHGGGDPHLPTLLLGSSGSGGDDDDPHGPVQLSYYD

[12] = biological target: Interleukin-8 (Homo sapiens, UniProt P10145); test: Dose Response confirmation of uHTS small molecule hits for cystic fibrosis induced NFkb Inhibitors in a PAF-induced IL8 counterscreen.; format: functional; conditions: read-out: IC50_Mean
[13] = test system: HEK293; test: EBV LMP1 TES2 canonical NF-kB signalling blockers – cell-based, HEK293, luciferase, cherry-pick, dose response (AID 588343); format: functional; conditions: Homo sapiens
[14] = test system: Vero; test: viability of Vero cells under compound – cytotoxicity control for flavivirus capping enzyme inhibitors (AID 588742); format: functional; conditions: Chlorocebus sabaeus
[15] = test system: HEK293; test: cells; format: functional, cell-based; conditions: Homo sapiens
[16] = test system: HEK293; test: NOD2 signaling inhibitors in MDP-stimulated cells, cell-based, uHTS, luminescence (AID 2001); format: functional; conditions: Homo sapiens
[17] = biological target: Nucleotide-binding oligomerization domain-containing protein 2 (Homo sapiens, UniProt Q9HC29); test: inhibition of NOD2-driven NF-kB reporter – cell-based, luminescence, uHTS, HEK293 (AID 1566); format: functional
Chain of Nucleotide-binding oligomerization domain-containing protein 2 (Q9HC29 whole entry, the tested form may be a part): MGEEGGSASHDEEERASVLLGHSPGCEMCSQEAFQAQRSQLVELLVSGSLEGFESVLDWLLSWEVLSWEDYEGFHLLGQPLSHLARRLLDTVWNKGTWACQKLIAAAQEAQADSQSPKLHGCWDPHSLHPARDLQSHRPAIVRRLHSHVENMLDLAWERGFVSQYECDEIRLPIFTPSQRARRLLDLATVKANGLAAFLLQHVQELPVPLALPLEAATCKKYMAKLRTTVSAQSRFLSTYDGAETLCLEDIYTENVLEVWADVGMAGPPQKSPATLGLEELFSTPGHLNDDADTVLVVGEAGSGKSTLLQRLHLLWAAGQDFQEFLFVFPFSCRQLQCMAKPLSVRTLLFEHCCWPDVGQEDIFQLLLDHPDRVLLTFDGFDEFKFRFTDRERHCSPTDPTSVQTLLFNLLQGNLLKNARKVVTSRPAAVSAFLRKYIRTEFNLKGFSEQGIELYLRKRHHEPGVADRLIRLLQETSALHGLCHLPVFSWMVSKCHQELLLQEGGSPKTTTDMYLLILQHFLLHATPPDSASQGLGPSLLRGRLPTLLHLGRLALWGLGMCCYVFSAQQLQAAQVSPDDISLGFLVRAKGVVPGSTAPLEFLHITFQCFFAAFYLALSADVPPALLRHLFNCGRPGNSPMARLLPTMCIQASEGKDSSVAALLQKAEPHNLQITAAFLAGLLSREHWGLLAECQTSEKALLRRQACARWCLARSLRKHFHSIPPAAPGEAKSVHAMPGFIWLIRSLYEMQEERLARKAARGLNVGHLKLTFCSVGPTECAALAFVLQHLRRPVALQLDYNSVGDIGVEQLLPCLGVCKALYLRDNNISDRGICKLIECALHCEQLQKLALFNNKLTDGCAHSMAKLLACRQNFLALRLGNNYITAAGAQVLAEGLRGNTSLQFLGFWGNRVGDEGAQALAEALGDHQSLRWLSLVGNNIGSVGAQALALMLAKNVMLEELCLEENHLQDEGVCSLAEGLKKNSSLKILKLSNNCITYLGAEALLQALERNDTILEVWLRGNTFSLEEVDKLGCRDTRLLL

[18] = Counterscreen for inhibitors of Trypanosoma brucei methionyl tRNA synthetase (MetRS): Luminescence-based cell-based high throughput dose response assay to identify compounds that are cytotoxic to Jurkat human T lymphocyte cells.; format: functional
[19] = test system: HEK293; test: inhibition of NOD1-driven NF-kB reporter – cell-based, luminescence, uHTS, primary screen (AID 1578); format: functional; conditions: Homo sapiens
[20] = test system: HEK293; test: cells; format: functional, cell-based; conditions: Homo sapiens; remark: listed apart in the source
[21] = test system: HEK293; test: cells; format: functional, cell-based; conditions: Homo sapiens; remark: listed apart in the source
[22] = biological target: T7, Cytochrome P450 1A2 (Homo sapiens, UniProt P05177);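 also: PubChem cytochrome P450 panel assay, CYP1A2 panel member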
T7 sequence (P05177 whole entry): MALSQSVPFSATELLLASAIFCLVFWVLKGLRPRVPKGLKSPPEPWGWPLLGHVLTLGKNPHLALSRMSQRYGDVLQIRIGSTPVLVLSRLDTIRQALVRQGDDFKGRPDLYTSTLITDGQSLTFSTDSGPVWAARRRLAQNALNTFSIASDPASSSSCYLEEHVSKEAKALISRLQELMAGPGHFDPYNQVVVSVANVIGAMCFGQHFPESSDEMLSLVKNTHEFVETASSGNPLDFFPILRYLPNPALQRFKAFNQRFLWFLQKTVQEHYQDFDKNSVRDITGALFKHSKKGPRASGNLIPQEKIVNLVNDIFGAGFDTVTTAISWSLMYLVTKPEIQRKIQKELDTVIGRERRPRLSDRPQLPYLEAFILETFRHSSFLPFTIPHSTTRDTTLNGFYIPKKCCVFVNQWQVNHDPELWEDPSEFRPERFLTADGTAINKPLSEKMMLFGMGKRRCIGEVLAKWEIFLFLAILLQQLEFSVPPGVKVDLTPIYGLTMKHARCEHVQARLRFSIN

[23] = biological target: Genome polyprotein (dengue virus type 2, UniProt P29990); test: flavivirus cap methylation enzyme inhibition – biochemical, confirmation dose response, primary screen (AID 588689); format: functional
Chain of Genome polyprotein (P29990 2492-3391 limits assumed): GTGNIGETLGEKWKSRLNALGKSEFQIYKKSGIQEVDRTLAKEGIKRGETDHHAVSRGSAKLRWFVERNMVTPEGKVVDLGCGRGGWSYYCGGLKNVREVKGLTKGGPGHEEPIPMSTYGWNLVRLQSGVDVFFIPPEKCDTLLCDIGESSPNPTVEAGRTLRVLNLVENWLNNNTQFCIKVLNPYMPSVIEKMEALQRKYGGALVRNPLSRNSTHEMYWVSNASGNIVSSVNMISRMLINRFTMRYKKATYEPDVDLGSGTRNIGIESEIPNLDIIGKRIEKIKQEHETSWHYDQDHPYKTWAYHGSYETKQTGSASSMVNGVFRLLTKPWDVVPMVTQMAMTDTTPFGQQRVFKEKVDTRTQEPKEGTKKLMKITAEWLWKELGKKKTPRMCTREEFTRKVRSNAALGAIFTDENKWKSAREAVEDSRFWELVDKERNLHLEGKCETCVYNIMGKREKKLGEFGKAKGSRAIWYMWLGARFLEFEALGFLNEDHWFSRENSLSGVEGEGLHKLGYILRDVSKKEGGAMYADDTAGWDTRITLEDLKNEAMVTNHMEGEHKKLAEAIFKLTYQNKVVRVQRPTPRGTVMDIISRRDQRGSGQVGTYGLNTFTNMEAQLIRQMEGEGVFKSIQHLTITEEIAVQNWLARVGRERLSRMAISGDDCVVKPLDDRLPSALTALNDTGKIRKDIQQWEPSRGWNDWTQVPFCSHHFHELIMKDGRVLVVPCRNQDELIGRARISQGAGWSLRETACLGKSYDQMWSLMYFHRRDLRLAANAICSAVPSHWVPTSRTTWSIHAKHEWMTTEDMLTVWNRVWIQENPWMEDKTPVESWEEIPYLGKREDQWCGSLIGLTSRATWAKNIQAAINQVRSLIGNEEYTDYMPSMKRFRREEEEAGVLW

[24] = Luminescence Cell-Based Dose Retest to Confirm Inhibitors of Cancer Stem Cells. [Related pubchem assays (depositor defined):AID2717, AID2721]; format: functional; conditions: Homo sapiens
[25] = biological target: Heat shock protein HSP 90-alpha (Homo sapiens, UniProt P07900); format: functional, organism-based
[26] = biological target: Lysine-specific demethylase 4C (Homo sapiens, UniProt Q9H3R0); test: inhibition of JMJD2C H3K9me3 demethylation – biochemical, DELFIA europium, cherry-picked samples, dose response (AID 488835); format: functional
Chain of Lysine-specific demethylase 4C (Q9H3R0 whole entry, the tested form may be a part): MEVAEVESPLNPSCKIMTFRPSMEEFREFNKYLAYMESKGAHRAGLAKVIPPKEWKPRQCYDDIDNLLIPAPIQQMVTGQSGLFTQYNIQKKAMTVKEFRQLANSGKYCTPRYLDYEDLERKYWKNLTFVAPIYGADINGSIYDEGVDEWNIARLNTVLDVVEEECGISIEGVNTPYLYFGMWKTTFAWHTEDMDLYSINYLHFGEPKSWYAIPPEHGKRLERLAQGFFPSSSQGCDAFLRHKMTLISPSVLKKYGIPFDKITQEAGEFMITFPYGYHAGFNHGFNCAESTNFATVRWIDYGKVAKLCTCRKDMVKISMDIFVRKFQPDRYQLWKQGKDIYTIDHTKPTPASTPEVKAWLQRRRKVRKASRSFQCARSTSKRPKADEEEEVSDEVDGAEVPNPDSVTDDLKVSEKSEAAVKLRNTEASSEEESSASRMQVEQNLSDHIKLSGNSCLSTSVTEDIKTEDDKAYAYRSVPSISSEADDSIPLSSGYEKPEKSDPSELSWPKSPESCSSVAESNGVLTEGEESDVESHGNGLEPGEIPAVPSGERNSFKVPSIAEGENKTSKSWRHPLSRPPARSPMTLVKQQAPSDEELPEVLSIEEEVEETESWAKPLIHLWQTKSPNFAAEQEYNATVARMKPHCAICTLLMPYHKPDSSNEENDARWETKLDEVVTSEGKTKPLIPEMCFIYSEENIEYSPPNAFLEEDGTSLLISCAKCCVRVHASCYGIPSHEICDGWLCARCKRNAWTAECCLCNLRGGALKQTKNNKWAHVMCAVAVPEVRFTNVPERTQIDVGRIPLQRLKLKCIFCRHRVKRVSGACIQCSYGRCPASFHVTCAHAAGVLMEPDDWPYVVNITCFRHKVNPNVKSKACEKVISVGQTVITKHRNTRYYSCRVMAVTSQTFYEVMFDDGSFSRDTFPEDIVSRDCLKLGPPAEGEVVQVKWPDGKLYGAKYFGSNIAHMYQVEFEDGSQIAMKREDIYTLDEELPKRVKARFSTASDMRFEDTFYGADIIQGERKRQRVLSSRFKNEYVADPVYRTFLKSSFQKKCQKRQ

[27] = test system: CHO; test: CHO cell viability loss, potency – luminescence, cytotoxicity control for TLR9-MyD88 binding inhibitor project, dose response (AID 588339); format: functional, cell-based, hamster; conditions: Cricetulus griseus;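 also: CHO cells stably coexpressing TLR9 and MyD88 fusions from primary screen; compound exposure lasted 48 hours before viability readout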
[28] = biological target: Cytochrome P450 2C9 (Homo sapiens, UniProt P11712)
Chain of Cytochrome P450 2C9 (P11712 whole entry): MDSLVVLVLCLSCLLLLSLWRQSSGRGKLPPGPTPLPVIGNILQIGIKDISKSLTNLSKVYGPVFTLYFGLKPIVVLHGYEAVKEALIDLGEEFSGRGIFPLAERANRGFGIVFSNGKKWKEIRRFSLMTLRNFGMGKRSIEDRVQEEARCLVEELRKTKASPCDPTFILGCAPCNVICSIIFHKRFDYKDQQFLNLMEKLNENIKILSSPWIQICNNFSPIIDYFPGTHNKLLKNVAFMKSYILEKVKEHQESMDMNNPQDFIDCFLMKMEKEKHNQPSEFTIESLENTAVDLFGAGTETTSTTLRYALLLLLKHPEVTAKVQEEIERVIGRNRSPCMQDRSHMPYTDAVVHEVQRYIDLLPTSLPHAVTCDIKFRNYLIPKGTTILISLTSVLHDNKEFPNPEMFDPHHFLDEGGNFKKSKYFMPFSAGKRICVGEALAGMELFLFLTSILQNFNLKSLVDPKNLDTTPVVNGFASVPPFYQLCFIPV

T1 sequence (Q9Y2T6 whole entry): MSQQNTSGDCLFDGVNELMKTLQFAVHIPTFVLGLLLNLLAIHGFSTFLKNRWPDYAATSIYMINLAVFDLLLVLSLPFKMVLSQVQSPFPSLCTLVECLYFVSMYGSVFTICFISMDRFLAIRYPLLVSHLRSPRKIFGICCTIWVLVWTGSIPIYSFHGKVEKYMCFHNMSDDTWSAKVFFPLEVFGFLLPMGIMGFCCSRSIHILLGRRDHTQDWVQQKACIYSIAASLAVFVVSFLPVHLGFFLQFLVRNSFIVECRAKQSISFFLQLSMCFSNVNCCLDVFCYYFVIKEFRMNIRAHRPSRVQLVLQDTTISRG

SMILES: CC(C)=CC(=O)Nc1ccc(OCc2ccccc2)cc1
- EC50 [1]: 1.89 µM (active)
- EC50 [2]: 2.34 µM (active)
- IC50 [3]: > 32 µM (inactive)
- IC50 [4]: 25.9 µM (active)
- IC50 [5]: 28.6 µM (active)
- IC50 [6]: 20.8 µM (active)
- IC50 [7]: > 32 µM (inactive)
- EC50 [8]: > 32 µM (inactive)
- AC50 [9]: > 52 µM (inactive)
- IC50 [10]: 8.82 µM (active)

SMILES: COc1ccc(-c2csc3ncnc(NCCN4CCOCC4)c23)cc1
- AC50 [11]: 21.3 µM (active)
- IC50 [12]: 50.7 µM (inactive)
- AC50 [13]: 25.3 µM (active)

SMILES: COc1cc2c(cc1NC(=O)CSc1ccccc1)oc1ccccc12
- EC50 [1]: 0.627 µM (active)
- EC50 [2]: 0.671 µM (active)
- IC50 [3]: > 32 µM (inactive)
- IC50 [7]: > 32 µM (inactive)
- EC50 [8]: > 32 µM (inactive)

SMILES: O=C(NCc1cc(Br)cc(Br)c1OC(=O)c1ccccc1[N+](=O)[O-])c1ccccc1
- CC50 [14]: > 40 µM (active)
- IC50 [15]: > 20 µM (inactive)
- IC50 [16]: 5.6 µM (active)
- EC50 [17]: 18.6 µM (active)
- IC50 [18]: 50.3 µM (inactive)
- EC50 [19]: 6.43 µM (active)
- IC50 [20]: > 20 µM (inactive)
- IC50 [21]: 5.22 µM (active)

SMILES: Cc1ccc(S(=O)(=O)O)cc1.c1cc2c(c(NC3=NCCN3)c1)CCCC2
- AC50 [22]: inactive

SMILES: CC1(C)CC[C@]2(C(=O)O)CC[C@]3(C)C(=CC[C@@H]4[C@@]5(C)CC[C@H](O[C@@H]6O[C@H](C(=O)O)[C@@H](O)[C@H](O[C@@H]7OC[C@H](O)[C@H](O)[C@H]7O)[C@H]6O)C(C)(C)[C@@H]5CC[C@]43C)[C@@H]2C1
- CC50 [14]: 36.8 µM (active)
- IC50 [23]: 31 µM (active)
- AC50 [24]: 2.85 µM (active)
- AC50 [25]: 0.649 µM (active)

SMILES: c1ccc2cc(CCO[C@H]3CCCCO3)ncc2c1
- AC50 [26]: 11.3 µM (active)

SMILES: CNC(=S)N/N=C/c1ccc(OCc2ccccc2)c(Br)c1
- IC50 [27]: 7.62 µM (active)

SMILES: COc1cc(C(=O)NCc2ccc(OCCN(C)C)cc2)cc(OC)c1OC [TRIMETHOBENZAMIDE]
- AC50 [22]: inactive
- AC50 [28]: inactive
